A melting point compilation (Tetko et al.; mined from patent text by program, amines drawn as free bases though some values may be those of a salt)
Residues, ends and D or L forms follow the SMILES beside them. *: point of attachment. Boc = CC(C)(C)OC(=O)*

| melting point [°C] | Structure (SMILES) |
| --- | --- |
| 85 to 86 | CCOCCCn1cnc(-c2ccc(F)cc2)c1-c1ccncc1 |
| 258 to 260 | Cc1cc(Cc2cnc(N)nc2N)cc(C)c1N |
| 77 to 79.5 | CCOC(=O)C(C)NC(=O)N(C)N (stereo not given) |
| 58 to 59 | CCCn1nc(-c2ccc(OC(=O)CC(C)(C)C)c(F)c2)c2cccc(Cl)c21 |
| 78 to 80 | CC(C)(C)OC(=O)N1CCC=C(Cc2c[nH]c3ccc(F)cc23)C1 |
| 111 to 115 | Cc1sc(C)c2c1CCCC2(O)c1cn(C(c2ccccc2)(c2ccccc2)c2ccccc2)cn1 (stereo not given) |
| 121 to 122 | CCCNc1c2ccccc2nc2c1c(C)nn2-c1ccccn1 |
| 191 to 193 | Cn1c(-c2ccc(F)cc2)cc(=O)c(C(=O)O)c1-c1ccc(F)cc1 |
| 177 to 180 | COCC(F)(F)c1nc2nc(C)c(F)cc2cc1C(=O)C1C(=O)C2CCC(C2)C1=O (stereo not given) |
| 163 to 165 | O=C(NCC1(c2ccccc2)CCCCC1)Nc1ccc(F)cc1F |
| 120 to 121 | CCCN1CC(c2ccc(S(C)(=O)=O)cc2)=C(c2ccc(F)cc2)C1=O |
| 215 to 218 | CC(=NO)c1ccc2c(c1)CCc1c(O)cc(O)cc1S2 |
| 121 to 122 | CCCC(=O)c1cnc2c(O)cccc2c1Nc1ccc(F)cc1C |
| 103 to 104 | COc1ccc(F)cc1C(C)(C)CC(O)(Cc1nc2cc(-c3ccccc3)ccc2o1)C(F)(F)F (stereo not given) |
| 86 to 87 | CCCCCCc1ccc(-c2ccc(COC(c3ccccc3)(c3ccccc3)c3ccccc3)cc2[N+](=O)[O-])cc1 |
| 35.5 to 36.9 | CC=COCCC[C@H]1CC[C@H](c2cccc(F)c2F)CC1 |
| 256 to 258 | COc1cc2nc(N3CCN(C(=O)C4=CCCC4)CC3)nc(N)c2cc1OC |
| 58 to 60 | c1cc(CN2CCOCC2)c(CN2CCOCC2)s1 |
| 104 | CCCC(c1ccc(C(=O)OC)cc1OCc1ccc(Cl)cc1Cl)n1ccnc1 (stereo not given) |
| 127 to 128 | CC1(C)[C@H](Cl)CC[C@]2(CI)OC(=O)C[C@H]12 |
| 41 | CCCCCCCCCCCCCCCC1CCCC(=O)C1 (stereo not given) |

| melting point [°C] | Structure (SMILES) |
| --- | --- |
| 179 to 180 | O=C1N(N2CCOCC2)c2ccccc2C1(Cc1ccccc1)Cc1ccccc1 |
| 138 to 140 | COc1cc(N)c(Cl)cc1C(=O)NCC1CCN(CCCCCNC(=O)c2ccccc2)CC1 |
| 91 to 93 | COc1cc(N)c(Cl)cc1C(=O)NCC1CCN(CCCCCOc2cccc3ccccc23)CC1 |
| 84 to 87 | c1ccc(P(Cc2ccccc2-c2ccccc2CP(c2ccccc2)c2ccccc2)c2ccccc2)cc1 |
| 188 | Oc1ccccc1-c1ccc(Cl)nn1 |
| 114 to 116 | CCCOc1cc(OC)c2c(c1)C(=O)c1cccc(OC(C)C)c1-2 |
| 107 to 108 | N#CCNC(=O)COc1ccc(Cl)cc1Cl |
| 75 to 77 | O=CC=C(c1ccccc1F)c1ccccc1F |
| 182 to 184 | CC(=O)CNC1(c2ccc(OC(C)=O)cc2)Sc2ccccc2N(C)C1=O (stereo not given) |
| 70 to 71 | CC(C)[C@H](NC(=O)N(C)Cc1csc(C2CCCC2)n1)C(=O)N[C@@H](Cc1ccccc1)C[C@H](O)[C@H](Cc1ccccc1)NC(=O)OCc1cncs1 |
| 328 | N#Cc1c(N2CCN(C(=O)c3ccco3)CC2)c2cc(Cl)cnc2n(CC(=O)c2ccccc2)c1=O |
| > 250 | O=c1[nH]c2sc(I)nc2c2ccccc12 |
| 60 | COc1ccc(-c2c(C)c3cc(OC)ccc3n2CCCCCCBr)cc1 |
| 192 to 194 | Cc1c(CC(C)C)sc2nc(C(Cl)(Cl)Cl)[nH]c(=O)c12 |
| 209 to 212 | CC(=O)Oc1cccc(C(=O)Nc2nc(S(C)(=O)=O)cs2)c1 |
| 174 to 176 | CCOc1ccc(-c2ccc3c(c2)C=C(C(=O)Nc2ccc(CN(C)C4CCOCC4)cc2)CCO3)cc1 |
| 221 to 224 | CC1(C)CC(Oc2ccc(O)nn2)c2cc(C#N)ccc2O1 (stereo not given) |
| 157 to 159 | CCOC(=O)c1cn(-c2nc(C)ns2)c2cc(F)c(F)cc2c1=O |
| 56 to 60 | CCOC(=O)CNCc1c(N)ccc(Cl)c1Cl |
| 98 to 100 | CCCCCCCCCCCCOc1ccc(C(=O)O)c(O)c1 |
| > 300 | O=C(Nc1ccccc1)c1ccccc1Nc1ncnc2[nH]cc(C(=O)c3ccccc3)c12 |

The next lines start with the compound.

| Structure (SMILES) | melting point [°C] |
| --- | --- |
| O=C(O)C1CCC(c2ccc(OCc3ccc4ccccc4n3)cc2)(c2ccc(OCc3ccc4ccccc4n3)cc2)CC1 | 194 to 199 |
| CC(C)C1(C)NC(c2ncc(Br)cc2C(=O)O)=NC1=O (stereo not given) | 206 to 208 |
| COc1cc2c(=O)n(CCO)c3c4cc5c(cc4ncc3c2cc1OC)OCO5 | 285 to 286 |
| C=CCOc1cc(-n2c(=O)cc(C(F)(F)F)n(C)c2=O)ccc1C#N | 158 to 160 |
| OCc1c(-c2ccccc2)c(-c2ccccc2)nn1Cc1ccccc1 | 138 |
| COc1ccc(NC(=O)N2CCc3cc(S(=O)(=O)N4CC(c5ccccc5)NC4=O)ccc32)cc1 (stereo not given) | 268 to 270 |
| N#Cc1ccc(CCl)cn1 | 45 to 47 |
| Cc1cc(Oc2ccc3nc(COc4ccc(CC5SC(=O)NC5=O)cc4)n(C)c3c2)cc(C)c1NC(=O)Nc1ccc(C(F)(F)F)cc1 (stereo not given) | 206 to 208 |
| COC(=O)c1nc(C)c(-c2ccncc2C)s1 | 95.5 to 96.3 |
| O=C(O)c1c[nH]c(Cl)c1 | 175 to 178 |
| CCc1nc2c(C)cc(C)nc2n1Cc1ccc(C(C(C)C)C(C)C(=O)O)cc1 (stereo not given) | 84 to 90 |
| N#Cc1cnc(-c2c(Cl)cc(C(F)(F)F)cc2Cl)[nH]1 | 210 to 212 |
| OCCCNC(Cn1ccnc1)c1ccc(Cl)cc1Cl (stereo not given) | 77 to 79 |
| CC(=O)NC1CCN(c2ccc(C#N)c3ccccc23)C1 (stereo not given) | 154 to 155 |
| COc1cc(-c2c(-c3ccncc3)c(-c3ccc(F)cc3)nn2CCO)ccn1 | 168 to 169 |
| O=C(NCCOc1ccc(CC(Oc2ccccc2)C(=O)O)cc1[N+](=O)[O-])c1ccc(-c2ccccn2)cc1 (stereo not given) | 178 to 179 |
| CC(=O)Nc1ccc2c(c1)CCCCC2=O | 105 |
| CC(C)CCC(O)C(C(=O)C(Cc1c[nH]cn1)N(C)C(=O)C(Cc1ccccc1)OC(=O)N(C)CCN(C)C(=O)C(C)C)C(N)C1CCCCC1 (stereo not given) | 68 to 72 |
| CCN(CCC(=O)O)C(=S)Nc1c(C)cccc1C | 115 to 118 |
| CC(=O)C=C(c1ccc(C#N)cc1)n1ccnc1 | 123 to 126 |

| Structure (SMILES) | melting point [°C] |
| --- | --- |
| CC12CCC3c4ccc(O)cc4C(=O)C(Sc4ccc(Br)cc4)C3C1CCC2O (stereo not given) | 190 to 194 |
| O=C(O)c1cccc2c1[nH]c1c(Cl)c(Cl)ccc12 | 290 |
| CC(C)NS(=O)(=O)c1cccc(NC(=O)c2cnn3c(C(F)(F)F)cc(-c4ccc(C(F)(F)F)cc4)nc23)c1 | 222 |
| O=C(/C=C/c1c(F)cccc1Cl)/C=C/c1c(F)cccc1Cl | 144 |
| CN(C)CCC(=O)Nc1cccc(NC(=O)Nc2ccc(N(CCCl)CCCl)cc2)c1 | 88 to 90 |
| OCc1ccc(-c2ccccc2-c2nnn[nH]2)cc1 | 132 to 135 |
| CCOC(=O)c1cnc2c([N+](=O)[O-])cc(CN3CCOCC3)cc2c1O | 214 to 216 |
| CCCOc1ccccc1-c1ccc(N)c(=O)[nH]1 | 158 to 161 |
| CC(F)(F)c1cccc(C(=O)O)c1 | 96 to 97 |
| CCn1c(-c2sc(NC(=O)c3ccncc3)nc2-c2ccco2)cccc1=O | > 300 |
| CSCc1nn(CCC#N)c(O)c1C | 98 |
| Cn1cc(C2=C(c3cn(CCO)c4ccccc34)C(=O)NC2=O)c2ccccc21 | 250 to 252 |
| N#Cc1ncn2c1[C@@H]1CCCN1C(=O)c1sccc1-2 | 249 to 251 |
| COc1ccc(N2CCN(CCC(O)COc3ccc(F)cc3)CC2)cc1 (stereo not given) | 78 to 80 |
| COC(=O)CNC(=O)CNC(=O)CNC(=O)OC(C)(C)C (Boc-Gly-Gly-Gly-OMe) | 122 to 128 |
| CCOC(=O)C1CCN(C(N)=S)CC1 | 97 to 98 |
| CSC1C(=O)Nc2c(Nc3ccccc3)cccc21 (stereo not given) | 174 to 176 |
| CCCCCCCCCCCCS(=O)(=O)c1ccccc1[N+](=O)[O-] | 47 to 48 |
| COc1ccc(N)c(OC)c1-c1ccc(C[C@H](NC(=O)c2c(Cl)cccc2Cl)C(=O)O)cc1 | 231 to 232 |
| COc1ccc(-c2cc(=O)n(-c3ccccn3)nc2C)cc1 | 156 to 157 |

| Structure (SMILES) | melting point [°C] |
| --- | --- |
| C=CC(OC(C)OCC)C(NC(=O)OC(C)(C)C)c1ccccc1 (stereo not given) | 66 to 72 |
| CCONC(=O)COc1cccc2c1c(C(=O)C(N)=O)c(CC)n2Cc1ccccc1 | 176 to 178 |
| CCOc1ncc(S(C)(=O)=O)cc1C(=O)O | 175 to 176 |
| CNC(=O)Nc1snc(C)c1C(=O)OC | 236 to 237 |
| COc1nc(-c2cccc(Cl)c2)c2cc(C(=O)N(C)OC)ccc2n1 | 118 |
| CN(C)C(Cl)=Nc1snc(C(C)(C)C)c1C#N | 94 to 100 |
| CC(C)(C)c1nc2cc(N3CCSCC3)c(N)cc2s1 | 170 to 175 |
| CCCn1nc2c(O)nc3ccccc3c2c1CC(C)(C)O | 294 to 296 |
| CCCCCCOC(=O)CS(=O)(=O)Nc1c(C(C)C)cccc1C(C)C | 66 to 68 |
| CC12C=CC(O)CC1=CCC1C2CCC2(C)C1CCC21OCCO1 (stereo not given) | 138 to 140 |
| COC(=O)[C@@H]1NC(=O)[C@@H]1NC(=O)OC(C)(C)C (relative stereo) | 140 to 144 |
| O=C(O)c1cn(CC2CC2)c2cc(Cl)ccc12 | 219 to 220 |
| CC(C)[C@H](NC(=O)[C@@H]1CCCN1C(=O)OCc1ccccc1)C(=O)O | 132 to 134 |
| COc1ccc(-c2c(NCC(C)c3ccccc3)c(=O)c2=O)cc1 (stereo not given) | 215 to 216 |
| Cc1cccc(NC(=O)NCC(=O)N2[C@@H](C(=O)OC(C)(C)C)C[C@@H](C#N)[C@H]2c2ccccc2)c1 (racemic) | 150 |
| CC(CCC(N)=S)N1C(=O)c2ccccc2C1=O (stereo not given) | 143 to 146 |
| CC(C)n1nc(CC(=O)c2ccc(F)cc2)ccc1=O | 67 to 68 |
| CCOC(=O)C(F)(F)C(O)C(CC(C)C)NC(=O)OC(C)(C)C (stereo not given) | 72 to 76 |
